Biological target: T1, AMPK (A2/B2/G2) (Homo sapiens, UniProt P54646)
T1 construct: purchased Thermo Fisher Scientific (Life Technologies) SelectScreen
Test: SelectScreen LanthaScreen
Type: binding
Details: read-out: % displacement
Summary of the method: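 NU5455 was profiled across the SelectScreen Broad panel of kinase activity and binding assays. Z'LYTE reactions such as CSF1R ran at apparent Km ATP, while the Adapta CAMK1 assay used ATP listed as 10. Values are given as percent.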

T1 sequence (P54646 whole entry): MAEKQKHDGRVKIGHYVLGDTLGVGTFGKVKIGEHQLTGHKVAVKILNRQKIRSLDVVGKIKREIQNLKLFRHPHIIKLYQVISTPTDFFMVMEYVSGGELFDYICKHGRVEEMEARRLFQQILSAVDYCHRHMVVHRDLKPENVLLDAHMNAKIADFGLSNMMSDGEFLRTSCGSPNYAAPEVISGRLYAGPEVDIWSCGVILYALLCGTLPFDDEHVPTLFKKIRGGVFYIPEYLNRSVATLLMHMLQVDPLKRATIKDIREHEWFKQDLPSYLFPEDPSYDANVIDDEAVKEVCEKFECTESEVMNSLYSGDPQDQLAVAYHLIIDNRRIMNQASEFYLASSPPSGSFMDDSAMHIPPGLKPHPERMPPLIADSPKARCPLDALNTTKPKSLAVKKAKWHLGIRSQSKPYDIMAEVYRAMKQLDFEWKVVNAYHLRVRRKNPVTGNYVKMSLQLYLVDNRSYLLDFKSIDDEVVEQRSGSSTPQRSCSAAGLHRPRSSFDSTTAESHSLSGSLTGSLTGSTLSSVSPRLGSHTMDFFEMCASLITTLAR
T1 sequence (O43741 whole entry partner): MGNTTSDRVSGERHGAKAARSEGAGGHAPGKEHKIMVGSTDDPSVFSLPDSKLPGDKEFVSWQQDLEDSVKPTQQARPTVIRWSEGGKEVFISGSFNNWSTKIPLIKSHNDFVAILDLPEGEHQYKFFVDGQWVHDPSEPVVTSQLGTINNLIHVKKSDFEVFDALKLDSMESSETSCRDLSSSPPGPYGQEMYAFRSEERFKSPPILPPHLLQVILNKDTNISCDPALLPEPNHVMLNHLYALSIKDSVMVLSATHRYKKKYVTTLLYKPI
T1 sequence (Q9UGJ0 whole entry partner): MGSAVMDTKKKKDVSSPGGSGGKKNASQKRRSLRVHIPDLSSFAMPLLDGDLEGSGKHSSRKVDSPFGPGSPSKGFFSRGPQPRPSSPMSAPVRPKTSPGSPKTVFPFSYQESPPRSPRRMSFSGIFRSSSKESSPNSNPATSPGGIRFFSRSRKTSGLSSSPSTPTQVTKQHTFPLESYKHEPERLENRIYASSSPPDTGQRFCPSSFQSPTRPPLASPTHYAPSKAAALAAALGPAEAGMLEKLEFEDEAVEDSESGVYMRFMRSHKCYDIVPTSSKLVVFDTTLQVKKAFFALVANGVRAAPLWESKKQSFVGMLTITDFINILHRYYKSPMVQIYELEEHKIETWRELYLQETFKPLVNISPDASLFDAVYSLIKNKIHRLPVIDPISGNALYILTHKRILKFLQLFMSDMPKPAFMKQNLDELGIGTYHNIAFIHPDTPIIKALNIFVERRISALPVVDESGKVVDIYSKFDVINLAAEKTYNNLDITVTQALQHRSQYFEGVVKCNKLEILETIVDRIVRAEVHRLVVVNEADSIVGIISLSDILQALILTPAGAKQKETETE

Compound: CN(C(=O)CN1CCOCC1)c1ccc2sc3c(-c4cccc5c(=O)cc(N6CC7CCC(C6)O7)oc45)cccc3c2c1 [NU5455]
- inhibition at 1 µM: -2.6%

— PMC6934184, “Selective DNA-PKcs inhibition extends the therapeutic index of localized radiotherapy and chemotherapy” (The Journal of Clinical Investigation, 2019)
